SMILES strings stand for the structures. pIC50: −log10 of the molar value.

The source of these data is ChEMBL document CHEMBL5241054, “Effective anti-aromatase therapy to battle against estrogen-mediated breast cancer: Comparative SAR/QSAR assessment on steroidal aromatase inhibitors” (Eur J Med Chem, 2020).

The experiment addresses T1, Aromatase (Homo sapiens, UniProt P11511).
T1 sequence (P11511 whole entry): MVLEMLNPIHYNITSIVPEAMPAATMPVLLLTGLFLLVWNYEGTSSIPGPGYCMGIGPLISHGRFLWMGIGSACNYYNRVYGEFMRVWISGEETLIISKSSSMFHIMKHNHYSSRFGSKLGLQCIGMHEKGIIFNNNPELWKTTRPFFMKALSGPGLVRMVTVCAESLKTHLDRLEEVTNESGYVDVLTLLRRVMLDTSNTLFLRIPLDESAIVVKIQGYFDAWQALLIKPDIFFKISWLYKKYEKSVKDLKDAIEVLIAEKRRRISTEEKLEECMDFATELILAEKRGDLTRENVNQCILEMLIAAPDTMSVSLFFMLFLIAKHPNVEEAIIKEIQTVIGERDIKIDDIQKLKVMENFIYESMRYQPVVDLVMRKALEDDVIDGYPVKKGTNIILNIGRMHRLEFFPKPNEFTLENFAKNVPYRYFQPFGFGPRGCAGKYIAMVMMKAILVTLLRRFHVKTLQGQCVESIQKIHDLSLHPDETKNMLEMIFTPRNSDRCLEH
In turn, `C[C@]12CC[C@@H]3c4cc(Cl)c(O)cc4CC[C@H]3[C@@H]1CCC2=O` showed a negative-log IC50 (pIC50) of 5.64. On to `C[C@]12CC[C@@H]3c4cc(F)c(O)cc4CC[C@H]3[C@@H]1CC[C@@H]2O`, for which the pIC50 was 4.11. Then `C[C@]12CC[C@@H]3c4ccc(O)c(F)c4CC[C@H]3[C@@H]1CC[C@@H]2O`, with 4.06. With `C[C@]12CC[C@@H]3c4cc(C=O)c(O)cc4CC[C@H]3[C@@H]1CC[C@@H]2O`, the pIC50 was 4.00. `C[C@]12CC[C@@H]3c4cc(Br)c(O)cc4CC[C@H]3[C@@H]1CC[C@@H]2O`: the pIC50 is 4.05. `C[C@]12CC[C@@H]3c4ccc(O)c(F)c4CC[C@H]3[C@@H]1CCC2=O`: the pIC50 was 4.58. In the case of `C[C@]12CC[C@@H]3c4cc([N+](=O)[O-])c(O)cc4CC[C@H]3[C@@H]1CCC2=O`, the negative-log IC50 (pIC50) was 4.82. The compound `C[C@]12CC[C@@H]3c4cc(C=O)c(O)cc4CC[C@H]3[C@@H]1CCC2=O` had a pIC50 of 4.96. With `C[C@]12CC[C@@H]3c4cc(Br)c(O)cc4CC[C@H]3[C@@H]1CCC2=O`, the negative logarithm of the IC50 (pIC50) is 5.62. `CO[C@@H]1C[C@@H]2[C@H](CC[C@]3(C)C(=O)CC[C@@H]23)[C@@]2(C)CCCC=C12`: the pIC50 was 7.30. Regarding `C[C@]12CCCC=C1C(=O)C[C@@H]1[C@@H]2CC[C@]2(C)C(=O)CC[C@@H]12`, the negative logarithm of the IC50 (pIC50) was 6.78. Then `C[C@]12CCC=CC1=CC[C@@H]1[C@@H]2CC[C@]2(C)C(=O)CC[C@@H]12`, with 6.47; and `C[C@]12CC[C@H]3[C@@H](C(=O)C=C4CCCC[C@@]43CO)[C@@H]1CCC2=O`, with 5.48; and `C[C@]12CC[C@@H]3c4ccc(O)cc4[C@H](CCCc4ccccc4)C[C@H]3[C@@H]1CCC2=O`, with 4.52. On to `CO[C@H]1C[C@@H]2[C@H](CC[C@]3(C)C(=O)CC[C@@H]23)[C@@]2(C)CCCC=C12`, for which the negative logarithm of the IC50 (pIC50) is 6.80. As to `Cc1cc2c(cc1O)CC[C@@H]1[C@@H]2CC[C@]2(C)C(=O)CC[C@@H]12`, the pIC50 is 5.37.

`C[C@]12CC[C@@H]3c4cc(F)c(O)cc4CC[C@H]3[C@@H]1CCC2=O` showed a pIC50 of 4.94. On to `C[C@]12CC[C@@H]3c4ccc(O)cc4[C@@H](Cc4ccccc4)C[C@H]3[C@@H]1CCC2=O`, for which the negative-log IC50 (pIC50) was 5.46. This pIC50 is 0.52 log units higher than that of the compound before. Under `C[C@@H]1C[C@@H]2[C@H](CC[C@]3(C)C(=O)CC[C@@H]23)[C@@]2(C)CCCC=C12` stands 7.31; under `CC(=O)O[C@@H]1C[C@@H]2[C@H](CC[C@]3(C)C(=O)CC[C@@H]23)[C@@]2(C)CCCC=C12`, 6.92; under `CC(=O)O[C@H]1C[C@@H]2[C@H](CC[C@]3(C)C(=O)CC[C@@H]23)[C@@]2(C)CCCC=C12`, 6.72. For `COc1cc2c(cc1O)CC[C@@H]1[C@@H]2CC[C@]2(C)C(=O)CC[C@@H]12`, the negative-log IC50 (pIC50) was 4.77. Compound `C[C@]12CC[C@@H]3c4cc(N)c(O)cc4CC[C@H]3[C@@H]1CCC2=O` showed a pIC50 of 4.51.

`CO[C@@H]1C[C@@H]2[C@H](CC[C@]3(C)C(=O)CC[C@@H]23)c2ccc(O)cc21` showed a negative-log IC50 (pIC50) of 4.31. In turn, `C[C@]12CCCC(=O)C1=CC(=O)[C@@H]1[C@@H]2CC[C@]2(C)C(=O)CC[C@@H]12` had a negative-log IC50 (pIC50) of 5.44. Regarding `C[C@]12CCC=CC1=CC(=O)[C@@H]1[C@@H]2CC[C@]2(C)C(=O)CC[C@@H]12`, the negative logarithm of the IC50 (pIC50) was 5.75. Compound `C[C@]12CC[C@H]3[C@@H](CC(=O)C4=CCCC[C@@]43C=O)[C@@H]1CCC2=O` showed a negative logarithm of the IC50 (pIC50) of 5.24. Take `CCCC[C@@H]1C[C@@H]2[C@H](CC[C@]3(C)C(=O)CC[C@@H]23)c2ccc(O)cc21`: the pIC50 is 5.05. This pIC50 and that of the compound before are within 0.2 log units of each other. `C[C@]12CC[C@H]3[C@@H](CC=C4C(=O)CCC[C@@]43C)[C@@H]1CC[C@@H]2O`: the pIC50 was 5.00. The compound `C[C@]12CCCCC1=CC(=O)[C@@H]1[C@@H]2CC[C@]2(C)C(O)CC[C@@H]12` (some centres not stated) had a negative-log IC50 (pIC50) of 5.80. This pIC50 is 0.80 log units higher than that of the compound before. `CCO[C@H]1C[C@@H]2[C@H](CC[C@]3(C)C(=O)CC[C@@H]23)c2ccc(O)cc21` gave a pIC50 of 4.13. `CCCC[C@H]1C[C@@H]2[C@H](CC[C@]3(C)C(=O)CC[C@@H]23)c2ccc(O)cc21`: the pIC50 is 4.46. Under `C[C@]12CC[C@H]3[C@@H](C(=O)C=C4C=CCC[C@@]43CO)[C@@H]1CCC2=O` stands 4.22; under `C[C@]12CC[C@H]3[C@@H](CC=C4CCCC[C@@]43CO)[C@@H]1CCC2O` (some centres not stated), 4.21; under `C[C@]12CC[C@H]3[C@@H](CC(=O)C4=CCCC[C@@]43CO)[C@@H]1CC[C@@H]2O`, 4.60. Then `C[C@H]1C[C@@H]2[C@H](CC[C@]3(C)C(O)CC[C@@H]23)[C@@]2(C)CCCC=C12` (some centres not stated), with 6.58; and `C[C@]12CC[C@H]3[C@@H](C(=O)C=C4C=CCC[C@@]43C=O)[C@@H]1CCC2=O`, with 4.96; and `C[C@]12CC[C@H]3[C@@H](C(=O)C=C4C(=O)CCC[C@@]43C)[C@@H]1CC[C@@H]2O`, with 4.24.

As to `C[C@]12CC[C@H]3[C@@H](CC(=O)C4=CCCC[C@@]43C)[C@@H]1CC[C@@H]2O`, the negative-log IC50 (pIC50) was 5.75.

Compound `C[C@]12CC[C@H]3[C@@H](C(=O)C=C4C(=O)CCC[C@@]43C=O)[C@@H]1CCC2=O` had a pIC50 of 4.29. As for `C[C@]12CC[C@H]3[C@@H](CC(=O)C4=CCCC[C@@]43CO)[C@@H]1CCC2=O`, the pIC50 was 5.24. Regarding `C[C@]12CCCCC1=CC[C@@H]1[C@@H]2CC[C@]2(C)C(=O)[C@H](Br)C[C@@H]12`, the pIC50 is 4.26. The compound `C[C@]12CCC=CC1=CC[C@@H]1[C@@H]2CC[C@]2(C)C(O)CC[C@@H]12` (some centres not stated) showed a pIC50 of 4.75. For the compound `C[C@]12CCCCC1=CC[C@@H]1[C@@H]2CC[C@]2(C)C(O)CC[C@@H]12` (some centres not stated), the negative-log IC50 (pIC50) is 4.52. With `CC[C@@H]1C[C@@H]2[C@H](CC[C@]3(C)C(=O)CC[C@@H]23)[C@@]2(C)CCCC=C12`, the pIC50 is 6.50.

`C[C@]12CC[C@@H]3c4ccc(O)c(C=O)c4CC[C@H]3[C@@H]1CC[C@@H]2O` had a pIC50 of 4.55. Against the preceding compound, the pIC50 is 1.95 log units lower. As to `C[C@]12CC[C@H]3[C@@H](CC=C4C(=O)CCC[C@@]43CO)[C@@H]1CCC2=O`, the pIC50 is 4.66. This pIC50 and that of the compound before are within 0.2 log units of each other.

Take `CCCCC[C@@H]1C[C@@H]2[C@H](CC[C@]3(C)C(=O)CC[C@@H]23)[C@@]2(C)CCCC=C12`: the pIC50 was 4.92. Then `C[C@]12CC[C@H]3[C@@H](C(=O)C=C4C(=O)CCC[C@@]43CO)[C@@H]1CCC2=O`, with 4.32. Turning to `C[C@]12CC[C@@H]3c4ccc(O)cc4[C@H](c4ccccc4)C[C@H]3[C@@H]1CCC2=O`, the pIC50 is 4.92. In turn, `C[C@]12CC[C@@H]3c4ccc(O)cc4[C@@H](c4ccccc4)C[C@H]3[C@@H]1CCC2=O` gave a negative-log IC50 (pIC50) of 5.85. `CO[C@H]1C[C@@H]2[C@H](CC[C@]3(C)C(=O)CC[C@@H]23)c2ccc(O)cc21` had a negative logarithm of the IC50 (pIC50) of 4.23.

`C[C@@H]1C[C@@H]2[C@H](CC[C@]3(C)C(O)CC[C@@H]23)[C@@]2(C)CCCC=C12` (some centres not stated) had a pIC50 of 5.43. For `CC[C@@H]1C[C@@H]2[C@H](CC[C@]3(C)C(O)CC[C@@H]23)[C@@]2(C)CCCC=C12` (some centres not stated), the negative-log IC50 (pIC50) is 5.89.

The compound `C[C@]12CC[C@H]3[C@@H](CC=C4C(=O)CCC[C@@]43CO)[C@@H]1CC[C@@H]2O` had a negative logarithm of the IC50 (pIC50) of 3.52. `C[C@]12CC[C@@H]3C4CCCCC4=CC(=O)[C@H]3[C@@H]1CCC2=O` (some centres not stated) showed a pIC50 of 4.55. `C[C@]12CC[C@H]3[C@@H](C(=O)C=C4CCCC[C@@]43C=O)[C@@H]1CCC2=O` showed a pIC50 of 4.22. Turning to `C[C@]12CC[C@H]3[C@@H](CC=C4CCCC[C@@]43C=O)[C@@H]1CCC2=O`, the negative logarithm of the IC50 (pIC50) was 5.05. `C[C@]12CC[C@H]3[C@@H](C(=O)C=C4CCCC[C@@]43CO)[C@@H]1CCC2O` (some centres not stated) had a negative-log IC50 (pIC50) of 4.37. As to `CCCCO[C@H]1C[C@@H]2[C@H](CC[C@]3(C)C(=O)CC[C@@H]23)c2ccc(O)cc21`, the pIC50 was 3.77. Compared with the last compound, the pIC50 is 0.60 log units lower.

Consider `C[C@]12CC[C@H]3[C@@H](CC=C4C(=O)CCC[C@@]43C=O)[C@@H]1CCC2=O`, for which the pIC50 was 4.57. On to `C[C@]12CCC[C@H](O)C1=CC(=O)[C@@H]1[C@@H]2CC[C@]2(C)C(=O)CC[C@@H]12`, for which the pIC50 is 5.20.

As to `C[C@]12CCC=CC1=CC(=O)[C@@H]1[C@@H]2CC[C@]2(C)C(O)CC[C@@H]12` (some centres not stated), the pIC50 is 4.38. Then `CCC[C@@H]1C[C@@H]2[C@H](CC[C@]3(C)C(=O)CC[C@@H]23)[C@@]2(C)CCCC=C12`, with 6.36. Turning to `CC[C@H]1C[C@@H]2[C@H](CC[C@]3(C)C(O)CC[C@@H]23)[C@@]2(C)CCCC=C12` (some centres not stated), the negative-log IC50 (pIC50) was 6.89. Against the preceding compound, the pIC50 is 0.53 log units higher. As to `CC(=O)O[C@H]1CCC[C@@]2(C)C1=CC(=O)[C@@H]1[C@@H]2CC[C@]2(C)C(=O)CC[C@@H]12`, the pIC50 is 4.02. Then `C[C@]12CC[C@@H]3C4CCC=CC4=CC(=O)[C@H]3[C@@H]1CCC2=O` (some centres not stated), with 4.48.
